Patent US11357779B2 (G1 Therapeutics, Inc., priority 2018, dated 2022)
Like-named read-outs stand apart in the source and are kept apart here.

Assay: Noncompartmental pharmacokinetic parameters (Cmax, Tmax, AUC, Racc) in QD and BID cohorts of Form B
Assay type: in vivo, human
Settings: Compound III; for AUC(0-t) / Cmax / Tmax: human, plasma, oral
Protocol: Analysis of plasma concentration versus time data for calculation of standard pharmacokinetic (PK) parameters following oral administration was conducted using Phoenix WinNonlin version 6.3 using actual blood sampling times.
The following pharmacokinetic parameters were calculated from the concentration versus time data obtained in Example 1 for each of the above QD (200 mg, 300 mg, 400 mg, 500 mg, or 650 mg dosed) and BID (100 mg, 150 mg, or 200 mg doses) Form B of Compound II dosage cohorts: • Cmax—the observed peak plasma concentration determined from the plasma concentration versus time data obtained on Day 1 and Day 29, as applicable; • Tmax—the time to reach the observed peak plasma concentration from the plasma concentration versus time data obtained on Day 1 and Day 29, as applicable; • AUC—area under the plasma concentration versus time curve during a dosing interval on Day 1 and Day 29, as applicable; and • Racc—accumulation ratio calculated as AUCDay 29/AUCDay 1.

[1] = 100 mg BID of Form B, Cohort 6, Day 1
[2] = 100 mg BID of Form B, Cohort 6, Day 29
[3] = 150 mg BID of Form B, Cohort 7, Day 1
[4] = 150 mg BID of Form B, Cohort 7, Day 29
[5] = 200 mg BID of Form B, Cohort 8, Day 1
[6] = 200 mg BID of Form B, Cohort 8, Day 29
[7] = 200 mg QD of Form B, Cohort 1, Day 1
[8] = 200 mg QD of Form B, Cohort 1, Day 29
[9] = 300 mg QD of Form B, Cohort 2, Day 1
[10] = 300 mg QD of Form B, Cohort 2, Day 29
[11] = 400 mg QD of Form B, Cohort 3, Day 1
[12] = 400 mg QD of Form B, Cohort 3, Day 29
[13] = 500 mg QD of Form B, Cohort 4, Day 1
[14] = 500 mg QD of Form B, Cohort 4, Day 29
[15] = 650 mg QD of Form B, Cohort 5, Day 1
[16] = 650 mg QD of Form B, Cohort 5, Day 29

## O=C1NCC2(CCCCC2)n2c1cc1cnc(Nc3ccc(N4CCNCC4)cn3)nc12 [Compound III, 2′-((5-(piperazin-1-yl)pyridin-2-yl)amino)-7′,8′-dihydro-6′H-spiro[cyclohexane-1,9′-pyrazino[1′,2′:1,5]pyrrolo[2,3-d]pyrimidin]-6′-one]
[1]
  AUClast (Max): 8.61 ng·h/mL
  AUClast (Min): 2.87 ng·h/mL
  Cmax (Max): 2.12 ng/mL
  Cmax (Min): 1.11 ng/mL
[2]
  AUClast (Max): 21.6 ng·h/mL
  AUClast (Min): 3.45 ng·h/mL
  Cmax (Max): 3.11 ng/mL
  Cmax (Min): 0.855 ng/mL
  Tmax (Max): 12.0 h
[3]
  AUClast (Max): 17.5 ng·h/mL
  AUClast (Min): 15.7 ng·h/mL
  Cmax (Max): 3.67 ng/mL
  Cmax (Min): 2.93 ng/mL
[4]
  AUClast (Max): 101 ng·h/mL
  AUClast (Min): 19.4 ng·h/mL
  Cmax (Max): 12.2 ng/mL
  Cmax (Min): 2.93 ng/mL
[5]
  AUClast (Max): 25.4 ng·h/mL
  AUClast (Min): 6.18 ng·h/mL
  Cmax (Max): 4.07 ng/mL
  Cmax (Min): 1.40 ng/mL
[6]
  AUClast (Max): 30.8 ng·h/mL
  AUClast (Min): 15.2 ng·h/mL
  Cmax (Max): 4.12 ng/mL
  Cmax (Min): 1.49 ng/mL
  Tmax (Max): 12.0 h
[7]
  AUClast (Max): 58.5 ng·h/mL
  AUClast (Min): 5.29 ng·h/mL
  Cmax (Max): 7.82 ng/mL
  Cmax (Min): 1.27 ng/mL
[8]
  AUClast (Max): 64.2 ng·h/mL
  AUClast (Min): 1.97 ng·h/mL
  Cmax (Max): 6.11 ng/mL
  Cmax (Min): 0.864 ng/mL
[9]
  AUClast (Max): 65.2 ng·h/mL
  AUClast (Min): 10.9 ng·h/mL
  Cmax (Max): 6.40 ng/mL
  Cmax (Min): 1.82 ng/mL
  Tmax (Min): 60 min
[10]
  AUClast (Max): 97.5 ng·h/mL
  AUClast (Min): 45.1 ng·h/mL
  Cmax (Max): 6.05 ng/mL
  Cmax (Min): 4.70 ng/mL
  Tmax (Max): 8.00 h
[11]
  AUClast (Max): 29.8 ng·h/mL
  AUClast (Min): 17.8 ng·h/mL
  Cmax (Max): 6.87 ng/mL
  Cmax (Min): 3.02 ng/mL
  Tmax (Min): 60 min
[12]
  AUClast (Max): 54.7 ng·h/mL
  AUClast (Min): 32.2 ng·h/mL
  Cmax (Max): 4.54 ng/mL
  Cmax (Min): 2.55 ng/mL
[13]
  AUClast (Max): 91.4 ng·h/mL
  AUClast (Min): 61.6 ng·h/mL
  Cmax (Max): 9.03 ng/mL
  Cmax (Min): 6.84 ng/mL
[14]
  AUClast (Max): 69.8 ng·h/mL
  AUClast (Min): 59.8 ng·h/mL
  Cmax (Max): 7.91 ng/mL
[15]
  AUClast (Max): 174 ng·h/mL
  AUClast (Min): 61.8 ng·h/mL
  Cmax (Max): 16.5 ng/mL
  Cmax (Min): 5.56 ng/mL
  Tmax (Max): 8.00 h
[16]
  AUClast (Max): 169 ng·h/mL
  AUClast (Min): 80.6 ng·h/mL
  Cmax (Max): 12.1 ng/mL
  Cmax (Min): 5.30 ng/mL
  Tmax (Max): 8.00 h
100 mg, 100 mg BID of Form B, Cohort 6, Day 1, read-out: AUClast (Mean)
  AUC(0-t): 5.37 ng·h/mL
100 mg, 100 mg BID of Form B, Cohort 6, Day 1, read-out: AUClast (Median)
  AUC(0-t): 5.18 ng·h/mL
100 mg, 100 mg BID of Form B, Cohort 6, Day 1, read-out: Cmax (Mean)
  Cmax: 1.59 ng/mL
100 mg, 100 mg BID of Form B, Cohort 6, Day 1, read-out: Cmax (Median)
  Cmax: 1.6 ng/mL
100 mg, 100 mg BID of Form B, Cohort 6, Day 1, read-out: Tmax (Mean)
  Tmax: 3.17 h
100 mg, 100 mg BID of Form B, Cohort 6, Day 1, read-out: Tmax (Median)
  Tmax: 3 h
100 mg, 100 mg BID of Form B, Cohort 6, Day 29, read-out: AUClast (Mean)
  AUC(0-t): 13 ng·h/mL
100 mg, 100 mg BID of Form B, Cohort 6, Day 29, read-out: AUClast (Median)
  AUC(0-t): 9.86 ng·h/mL
100 mg, 100 mg BID of Form B, Cohort 6, Day 29, read-out: Cmax (Mean)
  Cmax: 1.89 ng/mL
100 mg, 100 mg BID of Form B, Cohort 6, Day 29, read-out: Cmax (Median)
  Cmax: 1.56 ng/mL
100 mg, 100 mg BID of Form B, Cohort 6, Day 29, read-out: Tmax (Mean)
  Tmax: 4.4 h
100 mg, 100 mg BID of Form B, Cohort 6, Day 29, read-out: Tmax (Median)
  Tmax: 2 h
150 mg, 150 mg BID of Form B, Cohort 7, Day 1, read-out: AUClast (Mean)
  AUC(0-t): 16.5 ng·h/mL
